Assay results: the NIST ThermoML archive (doi:10.1016/j.fluid.2013.03.002)
Numbers after ± are expanded uncertainties.

Tests used:
[1] = 101.33 kPa, Liquid, Vibrating tube method
[2] = refractive index (Na D-line) (dimensionless); conditions: 101.33 kPa, Liquid, Standard Abbe refractometry

mass density ([1]; 293.15 K) [kg/m3]	mass density ([1]; 298.15 K) [kg/m3]	refractive index ([2]; 293.15 K)	refractive index ([2]; 298.15 K)	Structure (SMILES)
920.14 ± 1	915.65 ± 1	1.4225 ± 0.0005	1.4214 ± 0.0005	CCCOCC(C)OCC(C)O (stereo not drawn) [1-(1-methyl-2-propoxyethoxy)-2-propanol]
773.5 ± 1	769.93 ± 1	1.4342 ± 0.0006	1.4326 ± 0.0006	CCCCCCCCCCCCCCCC [hexadecane]
